Our source for the TD50 and carcinogen call values is PubChem BioAssay AID1745844 (Carcinogenic Potency Database (CPDB), 2022).

Several values for one entry are separate records, joined by “and”; a condition that tells them apart may be missing. Equal values may be shown once. Activity calls are given as the source filed them. No rule for the calls is given here.

The data set deals with rodent lifetime carcinogenesis bioassay, tumor incidence TD50. The data set can be described thus: carcinogenic potency in animals, long-term in vivo studies, CPDB compilation (AID 1745844).
Setting [1] is: mouse, strain B6AKF1, females, oral dosing, site: any site (literature study), lesion: several types, types named in the paper, dosed 76 weeks, study length 76 weeks.
Setting [2] is: mouse, strain B6AKF1, females, oral dosing, site: lung, lesion: adenoma, dosed 76 weeks, study length 76 weeks.
Where [3] appears, read: mouse, strain B6AKF1, males, oral dosing, site: any site (literature study), lesion: several types, types named in the paper, dosed 76 weeks, study length 76 weeks.
Where [4] appears, read: mouse, strain B6AKF1, males, oral dosing, site: lung, lesion: adenoma, dosed 76 weeks, study length 76 weeks.
The mark [5] stands for this setting: mouse, strain B6C3F1, females, oral dosing, site: any site (literature study), lesion: several types, types named in the paper, dosed 76 weeks, study length 76 weeks.
The mark [6] stands for this setting: mouse, strain B6C3F1, females, oral dosing, site: lung, lesion: adenoma, dosed 76 weeks, study length 76 weeks.
The mark [7] stands for this setting: mouse, strain B6C3F1, males, oral dosing, site: any site (literature study), lesion: several types, types named in the paper, dosed 76 weeks, study length 76 weeks.
Where [8] appears, read: mouse, strain B6C3F1, males, oral dosing, site: liver, lesion: hepatoma, dosed 76 weeks, study length 76 weeks.
The mark [9] stands for this setting: mouse, strain B6C3F1, males, oral dosing, site: lung, lesion: adenoma, dosed 76 weeks, study length 76 weeks.
Setting [10] is: mouse, strain A/He, females, in feed, site: liver, lesion: hepatoma, dosed 104 weeks, study length 104 weeks.
Setting [11] is: mouse, strain A/He, females, in feed, site: lung, lesion: one or several types, types not named, dosed 104 weeks, study length 104 weeks.
Where [12] appears, read: mouse, strain C3HfB, females, in feed, site: lung, lesion: one or several types, types not named, dosed 104 weeks, study length 104 weeks.
Where [13] appears, read: mouse, strain CFLP, females, in feed, site: liver, lesion: hepatocellular tumor, dosed 78 weeks, study length 78 weeks.

Turning to `CCCc1ccc2c(c1)OCO2`, the TD50 (as a rule, the dose at which the toxic effect under study appears in half of the subjects) (mouse, strain B6AKF1, females, oral dosing, site: any site (literature study), lesion: several types, types named in the paper, dosed 81 weeks, study length 81 weeks) is 305 mg/kg/day; the TD50 (mouse, strain B6AKF1, females, oral dosing, site: liver, lesion: angioma, dosed 81 weeks, study length 81 weeks) was 1400 mg/kg/day; the TD50 (mouse, strain B6AKF1, females, oral dosing, site: lung, lesion: adenoma, dosed 81 weeks, study length 81 weeks) came out at 739 mg/kg/day; the TD50 (mouse, strain B6AKF1, females, oral dosing, site: stomach, lesion: papilloma, dosed 81 weeks, study length 81 weeks) stood at 84.7 mg/kg/day; the TD50 (mouse, strain B6AKF1, males, oral dosing, site: any site (literature study), lesion: several types, types named in the paper, dosed 81 weeks, study length 81 weeks) was 86.6 mg/kg/day; the TD50 (mouse, strain B6AKF1, males, oral dosing, site: liver, lesion: hepatoma, dosed 81 weeks, study length 81 weeks) was 117 mg/kg/day. The TD50 (mouse, strain B6AKF1, males, oral dosing, site: lung, lesion: adenoma, dosed 81 weeks, study length 81 weeks) was 323 mg/kg/day; the TD50 (mouse, strain B6AKF1, males, oral dosing, site: lung, lesion: several types, types named in the paper, dosed 81 weeks, study length 81 weeks) stood at 448 mg/kg/day; the TD50 (mouse, strain B6C3F1, females, oral dosing, site: any site (literature study), lesion: several types, types named in the paper, dosed 81 weeks, study length 81 weeks) was 170 mg/kg/day; the TD50 (mouse, strain B6C3F1, females, oral dosing, site: lung, lesion: adenoma, dosed 81 weeks, study length 81 weeks) is 230 mg/kg/day; the TD50 (mouse, strain B6C3F1, males, oral dosing, site: any site (literature study), lesion: several types, types named in the paper, dosed 81 weeks, study length 81 weeks) came out at 107 mg/kg/day; the TD50 (mouse, strain B6C3F1, males, oral dosing, site: liver, lesion: hepatoma, dosed 81 weeks, study length 81 weeks) is 90 mg/kg/day. Besides, the TD50 (mouse, strain B6C3F1, males, oral dosing, site: lung, lesion: adenoma, dosed 81 weeks, study length 81 weeks) was determined as 358 mg/kg/day and the TD50 (rat, strain Osborne-Mendel, both sexes, in feed, site: esophagus, lesion: several types, types named in the paper, dosed 104 weeks, study length 104 weeks) was 143 mg/kg/day.

Regarding `CN(C)P(=O)(N(C)C)N(C)C`, the TD50 runs as follows: (rat, strain Charles River CD (Sprague-Dawley), both sexes, inhaled, site: nasal cavity, adenoid, lesion: squamous-cell carcinoma, dosed 53 weeks, study length 104 weeks) 0.519 mg/kg/day; (rat, strain Charles River CD (Sprague-Dawley), both sexes, inhaled, site: nasal cavity, adenoid, lesion: squamous-cell carcinoma, dosed 72 weeks, study length 104 weeks) 0.608 mg/kg/day; (rat, strain Charles River CD (Sprague-Dawley), both sexes, inhaled, site: nasal cavity, lesion: epidermoid carcinoma, dosed 53 weeks, study length 104 weeks) 0.0581 mg/kg/day; (rat, strain Charles River CD (Sprague-Dawley), both sexes, inhaled, site: nasal cavity, lesion: epidermoid carcinoma, dosed 72 weeks, study length 104 weeks) 0.0456 mg/kg/day; (rat, strain Charles River CD (Sprague-Dawley), both sexes, inhaled, site: nasal cavity, lesion: malignant tumor, dosed 53 weeks, study length 104 weeks) 0.0416 mg/kg/day; (rat, strain Charles River CD (Sprague-Dawley), both sexes, inhaled, site: nasal cavity, lesion: malignant tumor, dosed 72 weeks, study length 104 weeks) 0.0387 mg/kg/day. For the same molecule, the TD50 is 0.0345 mg/kg/day (rat, strain Charles River CD (Sprague-Dawley), both sexes, inhaled, site: nasal cavity, lesion: several types, types named in the paper, dosed 53 weeks, study length 104 weeks) and 0.0344 mg/kg/day (rat, strain Charles River CD (Sprague-Dawley), both sexes, inhaled, site: nasal cavity, lesion: several types, types named in the paper, dosed 72 weeks, study length 104 weeks).

As for `CC(C)OC(=O)COc1ccc(Cl)cc1Cl`, the TD50 is, setting by setting: under setting [1], 83.2 mg/kg/day (inactive); (mouse, strain B6AKF1, females, oral dosing, site: liver, lesion: hepatocellular carcinoma, dosed 76 weeks, study length 76 weeks) 94.7 mg/kg/day (inactive); under setting [5], 48.7 mg/kg/day (inactive); (mouse, strain B6C3F1, females, oral dosing, site: liver, lesion: hepatoma, dosed 76 weeks, study length 76 weeks) 100 mg/kg/day (inactive); under setting [6], 100 mg/kg/day (inactive); under setting [7], 16.4 mg/kg/day (inactive). Besides, the TD50 is 93.6 mg/kg/day (inactive) under setting [8] and 21.3 mg/kg/day (inactive) under setting [9]. Further, the carcinogen call is “negative (inactive)” under setting [2]; “negative (inactive)” under setting [3]; “negative (inactive)” (mouse, strain B6AKF1, males, oral dosing, site: liver, lesion: hepatoma, dosed 76 weeks, study length 76 weeks); “negative (inactive)” under setting [4].

In the case of `Clc1ccc(C(c2ccc(Cl)cc2)C(Cl)Cl)cc1`, the TD50 is 37.4 mg/kg/day under setting [1]; 73 mg/kg/day under setting [2]; 49 mg/kg/day under setting [3]; 82.9 mg/kg/day under setting [4]; 108 mg/kg/day (inactive) (mouse, strain B6C3F1, females, in feed, site: any site (literature study), lesion: several types, types named in the paper, dosed 78 weeks, study length 90 weeks); 493 mg/kg/day (mouse, strain B6C3F1, females, in feed, site: liver, lesion: hepatocellular adenoma + hepatocellular carcinoma + neoplastic nodule, dosed 78 weeks, study length 90 weeks). The TD50 under setting [5] came out at 250 mg/kg/day; the TD50 under setting [6] is 250 mg/kg/day; the TD50 (mouse, strain B6C3F1, males, in feed, site: any site (literature study), lesion: several types, types named in the paper, dosed 78 weeks, study length 90 weeks) was 997 mg/kg/day (inactive); the TD50 (mouse, strain B6C3F1, males, in feed, site: liver, lesion: hepatocellular adenoma + hepatocellular carcinoma + neoplastic nodule, dosed 78 weeks, study length 90 weeks) is 116 mg/kg/day; the TD50 under setting [7] came to 34.8 mg/kg/day; the TD50 under setting [8] is 43.3 mg/kg/day. Moreover, the TD50 was 120 mg/kg/day under setting [9]; 67.1 mg/kg/day (mouse, strain CF-1, females, in feed, site: any site (literature study), lesion: several types, types named in the paper, dosed 123 weeks, study length 123 weeks); 4830 mg/kg/day (inactive) (mouse, strain CF-1, females, in feed, site: liver, lesion: hepatoma, dosed 123 weeks, study length 123 weeks); 39.9 mg/kg/day (mouse, strain CF-1, females, in feed, site: lung, lesion: several types, types named in the paper, dosed 123 weeks, study length 123 weeks); 33.2 mg/kg/day (mouse, strain CF-1, males, in feed, site: any site (literature study), lesion: several types, types named in the paper, dosed 123 weeks, study length 123 weeks); 86.8 mg/kg/day (mouse, strain CF-1, males, in feed, site: liver, lesion: hepatoma, dosed 123 weeks, study length 123 weeks). Also, the TD50 was 24.9 mg/kg/day (mouse, strain CF-1, males, in feed, site: lung, lesion: several types, types named in the paper, dosed 123 weeks, study length 123 weeks); 2080 mg/kg/day (rat, strain Osborne-Mendel, females, in feed, site: liver, lesion: hepatocellular adenoma + hepatocellular carcinoma + neoplastic nodule, dosed 78 weeks, study length 111 weeks); 82.6 mg/kg/day (rat, strain Osborne-Mendel, males, in feed, site: any site (literature study), lesion: several types, types named in the paper, dosed 78 weeks, study length 111 weeks); 75.8 mg/kg/day (rat, strain Osborne-Mendel, males, in feed, site: thyroid gland, lesion: follicular-cell adenoma + follicular-cell carcinoma, dosed 78 weeks, study length 111 weeks). The carcinogen call (rat, strain Osborne-Mendel, females, in feed, site: any site (literature study), lesion: several types, types named in the paper, dosed 78 weeks, study length 111 weeks) was “negative (inactive)”.

In the case of `C#C[C@]1(O)CC[C@H]2[C@@H]3CCc4cc(OC)ccc4[C@H]3CC[C@@]21C` (tested in a mixture with another compound), the TD50 under setting [10] was 25.2 mg/kg/day (inactive); the TD50 under setting [11] is 4.62 mg/kg/day (inactive) and 4.31 mg/kg/day (inactive); the TD50 (mouse, strain BALB/c, females, in feed, site: several sites, sites named in the paper, lesion: squamous-cell carcinoma, dosed 86 weeks, study length 86 weeks) was 2 mg/kg/day; the TD50 (mouse, strain C3HfB, females, in feed, site: all sites, lesion: fibrosarcoma, dosed 104 weeks, study length 104 weeks) was 3.93 mg/kg/day (inactive); the TD50 under setting [12] was 27.6 mg/kg/day (inactive); the TD50 (mouse, strain C57BL/He, females, in feed, site: hypophysis, lesion: chromophobe adenoma, dosed 104 weeks, study length 104 weeks) was 1.75 mg/kg/day and 1.82 mg/kg/day. The TD50 runs as follows: (mouse, strain C57BL/He, females, in feed, site: lung, lesion: one or several types, types not named, dosed 104 weeks, study length 104 weeks) 20.7 mg/kg/day (inactive); (mouse, strain C57L/He x 129/Rr x C3HeB/De x SWR/Ly, females, by gavage, site: any site (literature study), lesion: several types, types named in the paper, dosed 69 weeks, study length 82 weeks) 0.332 mg/kg/day (inactive); (mouse, strain C57L, females, by gavage, site: pituitary gland, lesion: one or several types, types not named, dosed 89 weeks, study length 89 weeks) 0.151 mg/kg/day; under setting [13], 143 mg/kg/day (inactive); (mouse, strain Swiss Webster, females, by gavage, site: liver, lesion: hepatocellular tumor, dosed 65 weeks, study length 80 weeks) 20.8 mg/kg/day (inactive). The carcinogen call under setting [10] was “negative (inactive)”; the carcinogen call under setting [11] is “negative (inactive)”; the carcinogen call (mouse, strain BALB/cHe, females, in feed, site: lung, lesion: one or several types, types not named, dosed 104 weeks, study length 104 weeks) was “negative (inactive)”; the carcinogen call (mouse, strain C3H/He (MTV+), females, in feed, site: liver, lesion: hepatoma, dosed 104 weeks, study length 104 weeks) is “negative (inactive)”; the carcinogen call (mouse, strain C3HfB, females, in feed, site: liver, lesion: hepatoma, dosed 104 weeks, study length 104 weeks) is “negative (inactive)”; the carcinogen call under setting [12] is “negative (inactive)”. Besides, the carcinogen call by setting is: (mouse, strain C57BL/He, females, in feed, site: liver, lesion: hepatoma, dosed 104 weeks, study length 104 weeks) “negative (inactive)”; (mouse, strain C57L/He x 129/Rr x C3HeB/De x SWR/Ly, females, by gavage, site: any site (literature study), lesion: several types, types named in the paper, dosed 69 weeks, study length 69 weeks) “negative (inactive)”; (mouse, strain C57L/He x 129/Rr x C3HeB/De x SWR/Ly, females, by gavage, site: lung, lesion: one or several types, types not named, dosed 69 weeks, study length 69 weeks) “negative (inactive)”; under setting [13], “negative (inactive)”; (mouse, strain CFLP, males, in feed, site: liver, lesion: hepatocellular tumor, dosed 78 weeks, study length 78 weeks) “negative (inactive)”.
